Measured values taken from ChEMBL document CHEMBL3885881, “DrugMatrix”.

Organism: Rattus norvegicus
Assay: DrugMatrix - Regimen: Daily Repeat
Format: toxicity, organism-based, Sprague-Dawley
Set-up: regimen Daily Repeat, gender Male, age 6-8 weeks
Conditions: in vivo, iv, vehicle 100 % SALINE; for ABSOLUTE BASOPHIL / ABSOLUTE EOSINOPHIL / ABSOLUTE LYMPHOCYTE / ABSOLUTE MONOCYTE / ABSOLUTE SEGMENTED NEUTROPHIL / BASOPHIL / EOSINOPHIL / ERYTHROCYTE COUNT / HEMATOCRIT / HEMOGLOBIN / LEUKOCYTE COUNT / LYMPHOCYTE / MEAN CORPUSCULAR HEMOGLOBIN / MEAN CORPUSCULAR HEMOGLOBIN CONCENTRATION / MEAN CORPUSCULAR VOLUME / MONOCYTE / NEUTROPHIL / NUCLEATED RED BLOOD CELLS / PLATELET COUNT: tissue Blood; for ALANINE AMINOTRANSFERASE / ALBUMIN / ALKALINE PHOSPHATASE / ASPARTATE AMINOTRANSFERASE / BLOOD UREA NITROGEN / CARBON DIOXIDE / CHLORIDE / CHOLESTEROL / CREATINE PHOSPHOKINASE / CREATININE / GLUCOSE / LACTATE DEHYDROGENASE / LIPASE / PHOSPHORUS / POTASSIUM / SODIUM / TOTAL BILIRUBIN / TOTAL PROTEIN / URIC ACID: tissue Plasma
[1] = 2 mg/kg, 72 h, dose level High, time 3 day
[2] = 2 mg/kg, 120 h, dose level High, time 5 day
[3] = […], 72 h, dose 0.21 mg/Kg, dose level Low, time 3 day
[4] = […], 120 h, dose 0.21 mg/Kg, dose level Low, time 5 day

## O=C1c2c(O)ccc(O)c2C(=O)c2c(NCCNCCO)ccc(NCCNCCO)c21 [MITOXANTRONE]
[1]
  ABSOLUTE BASOPHIL: 0 CELLS/uL
  ABSOLUTE EOSINOPHIL: 0 CELLS/uL
  ABSOLUTE LYMPHOCYTE: 1529.67 CELLS/uL
  ABSOLUTE MONOCYTE: 0 CELLS/uL
  ABSOLUTE SEGMENTED NEUTROPHIL: 137 CELLS/uL
  BASOPHIL: 0%
  EOSINOPHIL: 0%
  ERYTHROCYTE COUNT: 5.38 x10E6/uL
  HEMATOCRIT: 34.37%
  HEMOGLOBIN: 12.83 G/DL
  LEUKOCYTE COUNT: 1.67 x10E3/uL
  LYMPHOCYTE: 91.67%
  MEAN CORPUSCULAR HEMOGLOBIN: 23.9 pg
  MEAN CORPUSCULAR HEMOGLOBIN CONCENTRATION: 37.37 G/DL
  MEAN CORPUSCULAR VOLUME: 63.87 fL
  MONOCYTE: 0%
  NEUTROPHIL: 8.33%
  NUCLEATED RED BLOOD CELLS: 0 /100WBC
  PLATELET COUNT: 1484 x10E3/uL
  ALANINE AMINOTRANSFERASE: 42.67 u/L
  ALBUMIN: 4.43 G/DL
  ALKALINE PHOSPHATASE: 444 u/L
  ASPARTATE AMINOTRANSFERASE: 64 u/L
  BLOOD UREA NITROGEN: 15.67 mg/dL
  CARBON DIOXIDE: 23 mmol/L
  CHLORIDE: 104.67 MEQ/L
  CHOLESTEROL: 79.33 mg/dL
  CREATINE PHOSPHOKINASE: 220.67 u/L
  CREATININE: 0.17 mg/dL
  GLUCOSE: 180.33 mg/dL
  LACTATE DEHYDROGENASE: 145 u/L
  LIPASE: 10 u/L
  PHOSPHORUS: 12.2 mg/dL
  POTASSIUM: 5.98 MEQ/L
  SODIUM: 146.2 MEQ/L
  TOTAL BILIRUBIN: 0.13 mg/dL
  TOTAL PROTEIN: 6.1 G/DL
  URIC ACID: 2.67 mg/dL
[2]
  ABSOLUTE BASOPHIL: 0 CELLS/uL
  ABSOLUTE EOSINOPHIL: 0 CELLS/uL
  ABSOLUTE LYMPHOCYTE: 1225 CELLS/uL
  ABSOLUTE MONOCYTE: 0 CELLS/uL
  ABSOLUTE SEGMENTED NEUTROPHIL: 8.33 CELLS/uL
  BASOPHIL: 0%
  EOSINOPHIL: 0%
  ERYTHROCYTE COUNT: 5.82 x10E6/uL
  HEMATOCRIT: 35.23%
  HEMOGLOBIN: 13.37 G/DL
  LEUKOCYTE COUNT: 1.23 x10E3/uL
  LYMPHOCYTE: 99.33%
  MEAN CORPUSCULAR HEMOGLOBIN: 23.07 pg
  MEAN CORPUSCULAR HEMOGLOBIN CONCENTRATION: 37.97 G/DL
  MEAN CORPUSCULAR VOLUME: 60.73 fL
  MONOCYTE: 0%
  NEUTROPHIL: 0.67%
  NUCLEATED RED BLOOD CELLS: 0 /100WBC
  PLATELET COUNT: 946 x10E3/uL
  ALANINE AMINOTRANSFERASE: 32.33 u/L
  ALBUMIN: 3.37 G/DL
  ALKALINE PHOSPHATASE: 255.33 u/L
  ASPARTATE AMINOTRANSFERASE: 47.67 u/L
  BLOOD UREA NITROGEN: 15.67 mg/dL
  CARBON DIOXIDE: 29.33 mmol/L
  CHLORIDE: 105 MEQ/L
  CHOLESTEROL: 107 mg/dL
  CREATINE PHOSPHOKINASE: 271.67 u/L
  CREATININE: 0.12 mg/dL
  GLUCOSE: 142.33 mg/dL
  LACTATE DEHYDROGENASE: 141.33 u/L
  LIPASE: 9.67 u/L
  PHOSPHORUS: 11.97 mg/dL
  POTASSIUM: 6.74 MEQ/L
  SODIUM: 146.57 MEQ/L
  TOTAL BILIRUBIN: 0.1 mg/dL
  TOTAL PROTEIN: 5.2 G/DL
  URIC ACID: 1.33 mg/dL
[3]
  ABSOLUTE BASOPHIL: 0 CELLS/uL
  ABSOLUTE EOSINOPHIL: 34.67 CELLS/uL
  ABSOLUTE LYMPHOCYTE: 7414.67 CELLS/uL
  ABSOLUTE MONOCYTE: 92.67 CELLS/uL
  ABSOLUTE SEGMENTED NEUTROPHIL: 224.67 CELLS/uL
  BASOPHIL: 0%
  EOSINOPHIL: 0.33%
  ERYTHROCYTE COUNT: 5.52 x10E6/uL
  HEMATOCRIT: 34.13%
  HEMOGLOBIN: 12.87 G/DL
  LEUKOCYTE COUNT: 7.77 x10E3/uL
  LYMPHOCYTE: 96%
  MEAN CORPUSCULAR HEMOGLOBIN: 23.37 pg
  MEAN CORPUSCULAR HEMOGLOBIN CONCENTRATION: 37.73 G/DL
  MEAN CORPUSCULAR VOLUME: 61.87 fL
  MONOCYTE: 1%
  NEUTROPHIL: 2.67%
  NUCLEATED RED BLOOD CELLS: 0 /100WBC
  PLATELET COUNT: 1537 x10E3/uL
  ALANINE AMINOTRANSFERASE: 46 u/L
  ALBUMIN: 4.5 G/DL
  ALKALINE PHOSPHATASE: 370.67 u/L
  ASPARTATE AMINOTRANSFERASE: 75 u/L
  BLOOD UREA NITROGEN: 14.33 mg/dL
  CARBON DIOXIDE: 24 mmol/L
  CHLORIDE: 103.33 MEQ/L
  CHOLESTEROL: 77.33 mg/dL
  CREATINE PHOSPHOKINASE: 192 u/L
  CREATININE: 0.24 mg/dL
  GLUCOSE: 163 mg/dL
  LACTATE DEHYDROGENASE: 207.67 u/L
  LIPASE: 9.67 u/L
  PHOSPHORUS: 13.57 mg/dL
  POTASSIUM: 7.01 MEQ/L
  SODIUM: 145.1 MEQ/L
  TOTAL BILIRUBIN: 0.23 mg/dL
  TOTAL PROTEIN: 6.23 G/DL
  URIC ACID: 2.6 mg/dL
[4]
  ABSOLUTE BASOPHIL: 0 CELLS/uL
  ABSOLUTE EOSINOPHIL: 26.67 CELLS/uL
  ABSOLUTE LYMPHOCYTE: 5180 CELLS/uL
  ABSOLUTE MONOCYTE: 42.67 CELLS/uL
  ABSOLUTE SEGMENTED NEUTROPHIL: 217.33 CELLS/uL
  BASOPHIL: 0%
  EOSINOPHIL: 0.67%
  ERYTHROCYTE COUNT: 5.12 x10E6/uL
  HEMATOCRIT: 32.83%
  HEMOGLOBIN: 12.5 G/DL
  LEUKOCYTE COUNT: 5.47 x10E3/uL
  LYMPHOCYTE: 94.33%
  MEAN CORPUSCULAR HEMOGLOBIN: 24.47 pg
  MEAN CORPUSCULAR HEMOGLOBIN CONCENTRATION: 38.1 G/DL
  MEAN CORPUSCULAR VOLUME: 64.27 fL
  MONOCYTE: 1%
  NEUTROPHIL: 4%
  NUCLEATED RED BLOOD CELLS: 0.33 /100WBC
  PLATELET COUNT: 1671.33 x10E3/uL
  ALANINE AMINOTRANSFERASE: 42.33 u/L
  ALBUMIN: 4.27 G/DL
  ALKALINE PHOSPHATASE: 328.67 u/L
  ASPARTATE AMINOTRANSFERASE: 67 u/L
  BLOOD UREA NITROGEN: 15 mg/dL
  CARBON DIOXIDE: 24.33 mmol/L
  CHLORIDE: 107.67 MEQ/L
  CHOLESTEROL: 77.67 mg/dL
  CREATINE PHOSPHOKINASE: 193.33 u/L
  CREATININE: 0.25 mg/dL
  GLUCOSE: 163.33 mg/dL
  LACTATE DEHYDROGENASE: 101 u/L
  LIPASE: 12 u/L
  PHOSPHORUS: 11.77 mg/dL
  POTASSIUM: 6.53 MEQ/L
  SODIUM: 146.7 MEQ/L
  TOTAL BILIRUBIN: 0.2 mg/dL
  TOTAL PROTEIN: 5.87 G/DL
  URIC ACID: 1.8 mg/dL
